Test results published in ChEMBL document CHEMBL1201862, “PubChem BioAssay data set” (2004).
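Briefly, cells in 96-well plates were exposed to five compound concentrations for 48 h, and endpoints were estimated by linear interpolation. GI50 = concentration required for 50% inhibition of growth.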 Calls of active or inactive are those of the source. Cut-off read from the data, not from the text of the source: active = GI50 up to about 1.1 µM and inactive = higher. Square brackets hold non-standard residues; d marks the D form. Peptide text beside a SMILES is read from it. * marks the point of attachment. X26 = COC1=CC(=O)N(C(=O)[C@@H](O*)C(C)C)[C@H]1Cc1ccccc1; NMeV = CN[C@H](C(=O)O)C(C)C; Hexanoyl = CCCCCC(=O)*

Experiments:
Test in all cases: NCI tumour cell line growth inhibition, 48 h
HOP-62 = tested on: HOP-62
786-0 = tested on: 786-0
SF-295 = tested on: SF-295
HCT-15 = tested on: HCT-15
U-251 = tested on: U-251
TK-10 = tested on: TK-10
SN12C = tested on: SN12C
OVCAR-5 = tested on: OVCAR-5
K562 = tested on: K562
MDA-N = tested on: MDA-N
SK-MEL-5 = tested on: SK-MEL-5
DU-145 = tested on: DU-145
OVCAR-8 = tested on: OVCAR-8
HOP-92 = tested on: HOP-92
SNB-75 = tested on: SNB-75
NCI-H23 = tested on: NCI-H23
SNB-19 = tested on: SNB-19
ACHN = tested on: ACHN
NCI-H522 = tested on: NCI-H522
SR = tested on: SR

| Structure (SMILES) | GI50 (HOP-62) | GI50 (786-0) | GI50 (SF-295) | GI50 (HCT-15) [µM] | GI50 (U-251) | GI50 (TK-10) | GI50 (SN12C) | GI50 (OVCAR-5) | GI50 (K562) | GI50 (MDA-N) | GI50 (SK-MEL-5) | GI50 (DU-145) | GI50 (OVCAR-8) | GI50 (HOP-92) | GI50 (SNB-75) | GI50 (NCI-H23) | GI50 (SNB-19) | GI50 (ACHN) | GI50 (NCI-H522) | GI50 (SR) |
| --- | --- | --- | --- | --- | --- | --- | --- | --- | --- | --- | --- | --- | --- | --- | --- | --- | --- | --- | --- | --- |
| COc1ccc(Nc2nc3ccc(C(F)(F)F)cc3nc2C(=O)O)cc1 | 35.5 µM (inactive) | 44.8 µM (inactive) | 23.6 µM (inactive) | 28.6 | 32.1 µM (inactive) | 30.3 µM (inactive) | 30.3 µM (inactive) | 28.2 µM (inactive) | 29.9 µM (inactive) | 42.2 µM (inactive) | 26.5 µM (inactive) | 49.1 µM (inactive) | 30.8 µM (inactive) | 29.6 µM (inactive) | 34.1 µM (inactive) | 20.6 µM (inactive) |  |  |  |  |
| CN(C)c1ccc(/C=c2/c3ccccc3n3c2cc(C24CC5CC(CC(C5)C2)C4)[n+]3C)cc1 | 0.411 µM (active) | 0.126 µM (active) | 0.32 µM (active) | 0.446 | 0.0664 µM (active) | 0.39 µM (active) | 0.324 µM (active) | 0.409 µM (active) | 0.0998 µM (active) | 0.33 µM (active) | 0.158 µM (active) | 0.311 µM (active) | 0.129 µM (active) | 0.366 µM (active) | 0.394 µM (active) | 0.261 µM (active) | 0.266 µM (active) | 0.23 µM (active) | 0.0923 µM (active) |  |
| Cc1ccc(-c2cc(N)n(-c3nc4c([nH]3)c(=O)n(C)c(=O)n4C)n2)cc1 | 3.28 µM (inactive) | 2.08 µM (inactive) | 2.69 µM (inactive) | 0.47 | 5.36 µM (inactive) | 9.84 µM (inactive) | 5.32 µM (inactive) | 8.05 µM (inactive) | 4.03 µM (inactive) | 5.98 µM (inactive) | 3.36 µM (inactive) | 6.35 µM (inactive) | 3.37 µM (inactive) | 12.8 µM (inactive) |  | 8.95 µM (inactive) | 8.55 µM (inactive) | 1.92 µM (inactive) | 29 µM (inactive) | 2.43 µM (inactive) |
| O=C1N/C(=N/N=C/C(O)C(O)C(O)C(O)CO)N/C1=C\c1ccco1 (stereo not drawn) | > 100 µM (inactive) | > 100 µM (inactive) | > 100 µM (inactive) | > 100 | 89.7 µM (inactive) | > 100 µM (inactive) | > 100 µM (inactive) | > 100 µM (inactive) | > 100 µM (inactive) | > 100 µM (inactive) | > 100 µM (inactive) | > 100 µM (inactive) | > 100 µM (inactive) | > 100 µM (inactive) | > 100 µM (inactive) | > 100 µM (inactive) | > 100 µM (inactive) | > 100 µM (inactive) | 81.7 µM (inactive) |  |
| Nc1ccccc1N/C=C\C(=O)C(Cl)(Cl)Cl | 19.3 µM (inactive) | 15 µM (inactive) | 23.4 µM (inactive) | 19 | 25.6 µM (inactive) | 30.6 µM (inactive) | 19 µM (inactive) | 20.1 µM (inactive) | 17.1 µM (inactive) | 16.6 µM (inactive) | 44 µM (inactive) | 26.7 µM (inactive) | 29 µM (inactive) | 19 µM (inactive) | 22.6 µM (inactive) | 22.7 µM (inactive) | 34.1 µM (inactive) | 16.3 µM (inactive) | 20.2 µM (inactive) |  |
| CC(=O)OCC1OC(OC2CC3C(C)(C)C(O)CC[C@]3(C)C3CCC45CC4(CCC5[C@@H](C)CC(O)C(O)C(C)(C)O)[C@]23C)C(O)C(O)C1O (stereo partly drawn) | > 10 µM (inactive) | > 10 µM (inactive) | > 10 µM (inactive) | > 10 | > 10 µM (inactive) | > 10 µM (inactive) | > 10 µM (inactive) | > 10 µM (inactive) | > 10 µM (inactive) | > 10 µM (inactive) | > 10 µM (inactive) | > 10 µM (inactive) | > 10 µM (inactive) | > 10 µM (inactive) | > 10 µM (inactive) | > 10 µM (inactive) | > 10 µM (inactive) | > 10 µM (inactive) | > 10 µM (inactive) |  |
| CCCCCC(=O)N[C@H](C(=O)N[C@H](C(=O)N(C)[C@H](C(=O)N1CCC[C@H]1C(=O)N1CCC[C@H]1C(=O)O[C@H](C(=O)N1C(=O)C=C(OC)[C@@H]1Cc1ccccc1)C(C)C)C(C)C)C(C)C)C(C)C (Hexanoyl-VV[NMeV]PP-X26) | > 100 µM (inactive) | 57.9 µM (inactive) | > 100 µM (inactive) | > 100 | 43.8 µM (inactive) | > 100 µM (inactive) | 94.6 µM (inactive) | 93.5 µM (inactive) | 71.1 µM (inactive) | 33.8 µM (inactive) |  | > 100 µM (inactive) | > 100 µM (inactive) | 36.2 µM (inactive) | 19 µM (inactive) | > 100 µM (inactive) |  | > 100 µM (inactive) | > 100 µM (inactive) |  |
